Experimental data as given in patent publication US20240277716A1, “Suppressive T Cell Populations and Methods of Cancer Immunotherapy” (La Jolla Institute for Immunology, priority 2021, published 2024).

Legend:
Format in all cases: in vivo, mouse
[1] = test system: colonic CD8+ and CD4+ T cells; assay: scRNA sequencing of colonic CD8+ and CD4+ T cells under different PI3Kδi dosing regimens
Method: (§1) Tumor experiments. Mice were inoculated with 1-1.5×10^5 B16F10-OVA cells subcutaneously into the right flank. Mice were put on either a control diet or a diet containing a PI3Kδ inhibitor PI-3065 on day 1 or day 5 after tumor inoculation. Diets were prepared using powdered 2018 global rodent diet (Envigo) mixed with or without PI-3065 at 0.5 g/kg, which corresponds to a daily dose of 75 mg/kg as used previously. To pellet the food, 50% v/w water was added to the diet and dough thoroughly mixed, compressed, molded and dried before use. Tumor size was monitored every other day, and tumor harvested at indicated time points for analysis of tumor-infiltrating lymphocytes. Tumor size limit of 15 mm in diameter was not exceeded and volume was calculated as ½×D×d^2, where D is the major axis and d is the minor axis, as described previously^36.
Murine colonic CD4+ and CD8+ T cells. Single-cell RNA-seq was performed by using the 10× platform. Mapping, aggregation, and QC was carried out as described above with the following thresholds: genes per cells range of [300, 4500], UMI content per cell […], percent of mitochondrial counts of <=10%, and a doublet score of <=0.3. Cluster of contaminant cells expressing epithelial, monocyte, and fibroblast markers was eliminated after the first round of clustering. The final number of cells were n=6415 CD4^+ T cells and n=2715 CD8^+ T cells.

[2] = test system: B16F10-OVA melanoma cells; assay: B16F10-OVA melanoma model, PI-3065 in diet: tumor volume and flow cytometry
Method: as §1
(§2) Murine lymphocytes were isolated from the spleen by mechanical dispersion through a 70-μm cell strainer (Miltenyi) to generate single-cell suspensions. RBC lysis (Biolegend) was performed to remove red blood cells. Tumor samples were harvested and lymphocytes were isolated by dispersing the tumor tissue in 2 ml of PBS, followed by incubation of samples at 37° C. for 15 min with DNase I (Sigma) and Liberase DL (Roche). The suspension was then diluted with MACS buffer and passed through a 70-μm cell strainer to generate a single cell suspension. Colons were collected and rinsed in 1 mM dithiothreitol (DTT) to remove feces. Each colon was cut into 2-3 mm pieces and incubated 3 times in pre-digestion solution (HBSS containing 5% FBS and 2 mM EDTA) at 37° C. for 20 min under high rotation to remove epithelial cells. Then tissues were minced with scissors and incubated with digestion solution (HBSS containing 5% FBS, 100 μg/ml DNase I (Sigma) and 1 mg/ml collagenase (Sigma)) at 37° C. for 20 min under high rotation to get single cell solutions of lamina propria cells. Cells were prepared in staining buffer (PBS with 2% FBS and 2 mM EDTA), FcR blocked (clone 2.4G2, BD Biosciences) and stained with antibodies as indicated below for 30 min at 4° C.; secondary stains were done for selected markers. Samples were then sorted or fixed and intracellularly stained using a FoxP3 transcription factor kit according to manufacturer's instructions (eBioscience). Cell viability was determined using fixable viability dye (ThermoFisher). The following antibodies from BD Biosciences, Biolegend, Miltenyi or eBbioscience were used: anti-human PD-1 (EH12.1, 1:30), CD4 (OKT4, 1:30), CD137 (4B4-1, 1:30), GITR (108-17, 1:30), ICOS (C398.4A, 1:50), CD8A (SKI, 1:30), CD25 (M-A251, 1:20), CD3 (SK7, 1:30), CD127 (eBioRDR5, 1:50), CD45 (HI30, 1:30), CD14 (HCD14, 1:50), CD20 (2H7, 1:50); anti-mouse CD3 (145-2C11, 1:100), CD4 (RM4-5, 1:100), CD8 (53-6.7, 1:100), PD-1 (29F1.A12, 1:100), ST2 (U29-93, 1:100) Ki67 (B56, 1:40), TOX (REA473, 1:40), CD19 (6D5, 1:100), CD45 (30-F11, 1:100), FOXP3 (FJK-16s, 1:100), GZMB (QA16A02, 1:40). All samples were acquired on a BD FACS Fortessa or sorted on a BD FACS Fusion (both BD Biosciences) and analyzed using FlowJo 10.4.1 for subsequent single-cell RNA-seq analysis.

[3] = test system: TREG cells from tumor, spleen and colonic tissue; assay: Single-cell RNA-seq and flow cytometry of TREG and CD8+ T cells from tumor, spleen and colon of B16F10-OVA tumor-bearing mice
Method: as §2
Murine TREG cells. […] Reads were mapped with Cell Ranger followed by QC (github.com/vijaybioinfo/quality_control) and demultiplexed with bcl2fastq using default parameters. […] Differential expression was calculated with MAST^38 (v1.10.0) DESeq2 (v1.24.0) as previously described^37 and genes with an adjusted P-value <0.05 and a fold change of >log2 0.5 were defined as significant. […]

[4] = test system: DSS-induced acute colitis; assay: Dextran Sulfate Sodium (DSS)-induced acute colitis model
Method: Colitis experiments. […] Body weight of the mice was monitored. Colon tissues were collected for histological analysis at the endpoint. Whole colons were harvested from mice between cecum and rectum. Stools were flushed out of lumen with PBS. Then colons were fixed with zinc formalin for 5 minutes. Fixed colons were opened longitudinally, flattened, cut into 3 fragments and further fixed in zinc formalin for 48 hours in cassettes. After fixation, samples were transferred to 70% isopropanol for long term storage or H&E staining. Slides were scored blindly according to the following criteria: inflammation, area of infiltration (extent), crypt damage and edema. The colon was divided into 3 equal parts and the middle section was utilized for scoring. Four randomly selected areas were analyzed, and a histological score was determined.

With Fc1ccc2[nH]ccc2c1-c1nc(N2CCOCC2)c2sc(CN3CCN(CC4CC4)CC3)cc2n1 [PI-3065] the “innate-like CD8+ T cells in colon” value ([1]; across dosing regimens) was “dosing-dependent decrease”, the “TC17 and TH17 subsets and pertaining proliferating clusters, share of all cells” value ([1]; continuous dosing regimen) was ~50% and the “TC17 and TH17 subsets and pertaining proliferating clusters” value ([1]; other treatment conditions (intermittent, infrequent, control)) was “nearly completely absent”. For the same compound, the tumor volume ([2]; C57BL/6 wild-type mice, PI-3065 diet vs control) was “significant decrease”, the “TREG cells in tumor, spleen and colon” value ([2]; PI3Kδi-treated vs placebo-treated mice) was “significant decrease” and the tumor growth ([2]; continuous dosing (for the duration of the experiment)) was “decrease in tumor growth”. The “CD8+ T cell infiltration in colonic tissue” value ([2]; continuous dosing only) was “increased”, the “TREG cell levels in colonic tissue” value ([2]; continuous dosing only) was “decreased” and the “intratumoral CD8+ T cells” value ([2]; high PD-1, increased proliferative and cytotoxic capacity) was “significant increase”. The tumor growth ([2]; infrequent dosing (2 days on, 5 days off), 2 cycles) was “decrease in tumor growth, albeit not significantly”, the tumor growth ([2]; intermittent dosing (4 days on, 3 days off), 2 cycles) was “significant decrease in tumor growth” and the “TOX in CD8+ T cells” value ([2]; post-PI3Kδi) was “increased”. The “differentially expressed genes in colonic TREG cells” value ([3]; PI3Kδi vs placebo treatment) was 869 genes, the “colonic TREG subsets (clusters 2 and 8)” value ([3]; PI3Kδi-treated mice) was “depleted” and the “CD8+ T cells in colonic tissue” value ([3]; colonic, but not splenic tissue) was “significant increase”. The “ratio of CD8+ T cells to ST2 TREG cells” value ([3]; protein level) was “substantially increased”, the body weight ([4]; 2.5% DSS from day 14-20, PI-3065 diet vs placebo) was “swift reduction in body weight” and the “deaths prior to experimental endpoint” value ([4]; PI3Kδ inhibitor-treated group, n=10) was “one”. For the same compound, the effect on colitis ([4]; PI-3065 diet plus 2.5% DSS) was “exacerbates colitis” and the overall colitis score ([4]; inflammation, crypt damage, extent, vs placebo) was “higher overall colitis score”.
